# In patent US10285963B2, “Combination of metabolic bio-energetic and nutra-epigentic regulators, nutraceutical compounds in conventional and nanotechnologies combination to revert and prevent the chronic damage accelerated cellular senescence produced by diabetes and other degenerative chronic complex diseases” (priority 2015, dated 2019):
# Experiments:
# Artemia salina nauplii = Artemia salina nauplii toxicity assay; details: for toxicity expressed as percent mortality of A. salina nauplii: any of the tested concentrations (62.5-1000 ppm)
# Description: Artemia salina is a crustacean sensitive to a wide range of compounds with biological activity and very different chemical structures. Michael et al. (Michael A. S. et al in Science, 1956, 123: 464) and Vanhaecke et al. (Vanhaecke et al in Ecotoxicol Environ Saf 1981, 5:382) proposed its use for toxicity testing. It is a test that allows conducting practically and economically toxicity studies of different nature substances. […] This model is accepted by the FDA (Food Drug Administration) and EPA (Environmental Protection Agency in 2002), as a test for evaluating the toxicity and ecotoxicity of pharmaceutical and/or food products.
# In an Artemia salina hatcher, 0.5 g cysts of Artemia salina were hatched in artificial seawater at 37 g/L at a temperature of 27° C. with constant aeration for 24 h. In every 5 wells out of a 96-well plate, 0.1 mL of artificial seawater (37 g/L) was applied with a single-channel pipette with ten nauplii, separated from the hatcher and counted one by one to achieve an exact separation of 10 nauplii. […] Using a multichannel micropipette, 0.1 mL of the solutions prepared in the plate were added, achieving a final concentration of 62.5, 125, 250, 500 and 1000 ppm per five wells of nauplii. For blank samples, 10 untreated nauplii were placed in a 0.2 mL volume of artificial seawater (37 g/L). The microplate was incubated at 25° C. for 24 h. After incubation period, A. salina nauplii alive and dead were counted with a stereoscopic microscope and % mortality was determined. Toxicity was expressed as percent mortality of A. salina nauplii: 0-10% non-toxic, moderately toxic 11-50%, 51-90% highly toxic and 100% extremely toxic, considering the Gualdron et al, scale. (Gualdron R. et al in Chem Rev. Col. Farm, 1997, 26: 15 to 19). […] Data were analyzed with the Statistical Package Graph Pad Prism version 6, by analysis of variance (ANOVA) test and Tukey multiple comparisons (p<0.05).
# [1] = tested on: human peripheral blood mononuclear cells (lymphocytes) DNA; details: 0.1 mM, positive control, 24 h
# Method: By using culture medium cell concentration was adjusted to 1×10^6 cells/mL. Cells obtained were seeded in Eppendorf vials at a density of 3×10^4 cells/mL and incubated at 37° C. and 5% CO2 for 24 hours to stabilize. […] Cells were incubated for 24 h to be later precipitated by centrifugation at 1200 rpm for 5 min and treated with 0.1 mL trypsin (0.25%) for 3 min at 37° C. and 5% CO2. Cells were resuspended in 1 mL of RPMI 1640 medium and centrifuged again at 1200 rpm for 5 min, the supernatant was discarded and the cells were incubated with 1 mL of lysis solution (NaCl 2.5 M, Na2EDTA 100 mM, Tris HCl 10 mM, and 1% Triton) at 4° C. for 24 h. After 24 h, vials were centrifuged at 1200 rpm at 4° C. […] The generated images were acquired with a high resolution digital camera (FIG. 4, above) and analyzed with ImageQuant TL v8.1 software. The area of the comet head representing intact DNA was quantified by densitometric analysis and plotted as percentage versus the negative control (culture medium) (FIG. 4, in the middle). The tail of the comet representing the damaged DNA was measured in millimeters and represented as the percentage of the positive control (H2O2). Data were expressed as mean±mean standard deviation (FIG. 4, below). Data obtained were analyzed by analysis of variance (ANOVA) using in case of any difference a post-hoc Tukey test using GraphPad Prism v6.0 software, at p<0.05.
# [2] = tested on: rabbits with alloxan-induced diabetes; test: Alloxan-induced diabetes in rabbits; assay type: in vivo
# Method: (§1) In all tests carried out on laboratory animals the treatment was orally administered in a weight-dependent measure, through orogastric cannula, after conventional feed consumption for rodents and lagomorphs (Commission of the European Communities in Off. J. Eur. Comm (L 383 A), 1992, 35: 110), respectively.
# (§2) Body weight was determined and recorded at the beginning and end of the experiment. Also in case of rabbits, clinical laboratory tests were performed before and after each test: blood biometry, blood chemistry and activity of transaminase enzymes: aspartate aminotransferase (AST), alanine aminotransferase (TGP) and transpeptidase gamma glutamyl transaminase (GGT). In rats, these parameters were determined only at the end of testing to prevent blood loss. Finally, we proceeded with the euthanasia step to animals applying a series of anesthetics and potassium chloride (KCl). Subsequently, an organ and fundamental tissue macroscopic examination and necropsy was conducted, primarily including heart, kidney, spleen, pancreas, lung, liver, ovaries and testicles, according to each case. Samples taken were sent to carry out a histopathological study.
# (§3) In addition, the test in rats and rabbits with alloxan-induced diabetes was performed. […] Insulin glargine was administered subcutaneously at a dose of 0.7 U/kg in a single morning administration every 24 h.
# [3] = tested on: rats with alloxan-induced diabetes; test: Alloxan-induced diabetes in rats; assay type: in vivo
# Method: as §1, §2, §3
# [4] = tested on: human embryonic kidney (HEK-293) cell line; test: MTT microdilution assay, HEK-293; assay type: cell-based
# Description: (§4) MTT method, based on reduction of 3-(4,5-dimethylthiazol-2-yl)-2,5-diphenyltetrazolium bromide, is an assay that reflects the metabolic function of cells. MTT is a yellow dye reduced to formazan (blue dye) by mitochondrial dehydrogenases, which are part of the respiratory chain of viable cells (Hwa et al., 2015). It is used in a quantitative colorimetric microdilution method applied for determination of survival and proliferative capacity of mammalian cells (Mosmann T. in J. Immunol Methods, 1983, 65 (1-2): 55). […]
# (§5) Dulbecco's modified Eagle Minimum Essential culture Medium/F12 (DMEM/F12) was used, supplemented with 10% fetal bovine serum (FBS) and 1 mL of a mixture of antibiotics (200,000 IU of penicillin and 0.5 g streptomycin). […] Subsequently MTT solution was removed, retaining the formed formazan salts, then they added 0.1 mL of isopropyl alcohol and the absorbance at 540 nm was read in a Synergy HT microplate reader with GEN 5 embedded software. In the calculation of cell viability percentage detected absorbance in wells with cells proliferated in untreated culture medium were considered 100% of living cells. […] Results of data analysis are expressed as the average±standard deviation (FIG. 5).
# [5] = tested on: Vero cell line (African green monkey kidney cells); test: MTT microdilution assay, Vero; assay type: cell-based
# Description: as §4, §5
# [6] = tested on: peripheral human lymphocytes; test: Lymphocyte proliferation and viability, trypan blue count; assay type: cell-based; details: positive control 1.25 mg/mL, 48 h
# Description: For the assay, a biological in vitro system using mononuclear cells culture from peripheral blood mononuclear cells—peripheral human lymphocytes was used. The system was selected because they form from 25 to 35% of leukocytes and they are the main immune response promoting cells since they recognize foreign antigens and activate cellular immune response mediators, causing proliferation or suppression phenomena before endogenous or exogenous stimuli. These cultures are widely used in research to evaluate the effects of various compounds (Marti-Centelles R. et al in J. Med Chem Eur, 2015, 103: 488). […] As a positive control the test with concanavalin A (Con A) was performed, which is a globular plant-origin protein that induces mitosis in lymphocytes causing clonal proliferation (Ganem and Martin Gonzalez Baez F A O. in Universo Diagnóstico, 2000, 1 (1):1). Assay with RPMI-1640 (medium without treatment) was performed as blank. […]
# Optical light microscope with 40× objective was used. Cells were counted with Neubauer chamber using 0.05 mL suspension of each resuspended samples in 0.4 mL of PBS 1× and 0.05 mL of trypan blue. […] The results were analyzed by the variance analysis test (ANOVA) with SPSS version 16 and then Dunnet's test was applied to discern whether a difference between control and experimental treatments was present, taking values of p<0.05 as significant.
# [7] = positive control, 1.95-2000 ppm
molecule,measurement,setting,value
"NCC(=O)O [Glycine, glycine]",toxicity expressed as percent mortality of A. salina nauplii,Artemia salina nauplii; 24 h,toxicity free
N=C(N)NCCC[C@H](N)C(=O)O [arginine],toxicity expressed as percent mortality of A. salina nauplii,Artemia salina nauplii; 24 h,toxicity free
OO [hydrogen peroxide],DNA damage (genotoxicity),[1],much more rapid dsDNA diffusion
"3, 5, 4-trihydroxy-trans-stilbene [resveratrol]",mortality of A. salina nauplii,"Artemia salina nauplii; 62.6 ppm solution, 24 h",38%
same,toxicity class (percent mortality scale),"Artemia salina nauplii; 62.6 ppm solution, 24 h",moderate toxicity
same,LC50 (lethal concentration to 50% nauplii),Artemia salina nauplii; 24 h,89.48 ppm
same,toxicity class (percent mortality scale),Artemia salina nauplii; from the LC50 concentration (89.48 ppm),highly toxic (51-90% highly toxic)
insulin,kidney histology,[2]; diabetic female rabbit treated only with insulin,early diabetic nephropathy
same,pancreas histology,[2]; diabetic female rabbit treated only with the named treatment,complete destruction of the organ
same,"kidney histology, tubular component",[2]; diabetic male rabbit treated only with insulin,changes by coagulative necrosis and nuclei pyknosis
same,macroscopic pancreatic alterations at autopsy,"[2]; diabetic rabbits, single treatment only",most severe pancreatic alterations
same,capillary glucose,"[3]; diabetic rats treated only with insulin, up to 19 days",increase in the tendency for capillary glucose
same,weight change,"[3]; diabetic rats, pure insulin, compared to other groups",tendency of weight loss decrease is much more visible
same,macroscopic pancreatic alterations at autopsy,"[3]; diabetic rats, single treatment only",most severe pancreatic alterations
Triton X-100,LC50,"[4]; HEK-293, MTT, 24 h",764.10±21.93 ppm
same,effect on absorbance/viability,[4]; [7],dose-depending effect
same,LC50,"[5]; Vero, MTT, 24 h",42.80±1.60 ppm
same,effect on absorbance/viability,[5]; [7],dose-depending effect
concanavalin A,increase in the number of cells,[6],65%
same,number of cells,[6],"9,101,667 cells/mL"
